“And” between values parts separate entries of the source, which are not always exact repeats. Equal entries are not always repeated. Where two headings read alike, the source gives them in different places.
Tests used:
[1] = target: T1, helicase domain of the Pol θ protein (Homo sapiens, UniProt O75417); experiment: Biochemical Activity Assay (ADP Glo Assay) of Pol θ inhibitor, ATPase activity
T1 construct: The helicase domain of the Pol θ protein was purified from insect protein expression system; made in house; host or cells: insect protein expression system

[2] = read-out: Cell viability assay IC50
[3] = cells; settings: Homo sapiens, DLD-1, 240 h
[4] = read-out: Cell viability assay IC50 (nM)
[5] = ADP-Glo assay, ATPase activity of Pol θ helicase domain, ssDNA substrate, read-out: Biochemical assay IC50
[6] = ADP-Glo, ssDNA substrate, 60 min at room temperature, read-out: Biochemical assay IC50
[7] = CTG on Day 10, cell line not given (method: DLD1 and DLD1^-/- cells)
[8] = Biochemical assay IC50 (nM), ADP-Glo assay, ATPase activity of Pol θ helicase domain, ssDNA substrate
[9] = Biochemical assay IC50 (nM), ADP-Glo, ssDNA substrate, 60 min at room temperature

T1 sequence (O75417 102-554 limits assumed): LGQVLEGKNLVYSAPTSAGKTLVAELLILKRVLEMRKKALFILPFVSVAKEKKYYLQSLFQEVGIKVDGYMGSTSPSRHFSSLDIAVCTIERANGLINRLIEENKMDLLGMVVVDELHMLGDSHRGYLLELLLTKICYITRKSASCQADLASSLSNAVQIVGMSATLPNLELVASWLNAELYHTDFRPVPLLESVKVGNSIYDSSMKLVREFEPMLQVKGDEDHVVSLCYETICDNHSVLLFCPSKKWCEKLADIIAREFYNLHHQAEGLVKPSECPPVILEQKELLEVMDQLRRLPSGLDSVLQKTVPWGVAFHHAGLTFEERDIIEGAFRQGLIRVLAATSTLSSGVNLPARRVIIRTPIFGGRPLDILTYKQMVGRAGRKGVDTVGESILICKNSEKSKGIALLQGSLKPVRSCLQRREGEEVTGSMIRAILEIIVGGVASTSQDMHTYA

With COc1cnc(Cl)cc1-c1cc(C)ncc1C(=O)Nc1nc2ncc([C@H]3CC[C@@H](O)CC3)cc2s1 [Example 26, 2'-chloro-N-(6-((1s, 4s)-4-hydroxycyclohexyl)thiazolo[4,5-b]pyridin-2-yl)-5'-methoxy-6-methyl-[4,4'-bipyridine]-3-carboxamide] the IC50 ([1]; Biochemical assay IC50 (nM)) was < 50 nM and 5.69 nM, the IC50 [2] was 158 nM and the IC50 [3, 4] was 100 to 500 nM.
For COc1cnc(Cl)cc1-c1cc(C)ncc1C(=O)Nc1nc2ncc([C@H]3CC[C@H](O)CC3)cc2s1 [Example 27, 2'-chloro-N-(6-((1r, 4r)-4-hydroxycyclohexyl)thiazolo[4,5-b]pyridin-2-yl)-5'-methoxy-6-methyl-[4,4'-bipyridine]-3-carboxamide], the IC50 ([1]; Biochemical assay IC50 (nM)) was < 50 nM and 10.3 nM, the IC50 [2] was 736 nM and the IC50 [3, 4] was 500 to 1000 nM.
With COc1cnc(Cl)cc1-c1cc(C)ncc1C(=O)Nc1nc2ccc([C@H]3CC[C@@H](O)CC3)nc2s1 [Example 28] the IC50 [1, 5] was 12.1 nM, the IC50 [1, 6] was < 50 nM and the IC50 [2] was 178 nM. It also gave an IC50 [3, 4] of 100 to 500 nM.
With COc1cnc(Cl)cc1-c1cnccc1C(=O)Nc1nc2ccc([C@H]3CC[C@@H](O)CC3)nc2s1 [Example 33] the IC50 [1, 5] was 24.9 nM, the IC50 [1, 6] was < 50 nM and the IC50 [2] was 171 nM. For the same molecule, the IC50 [3, 4] was 100 to 500 nM.
In the case of COc1cnc(Cl)cc1-c1cc(C)ncc1C(=O)Nc1nc2c(s1)CNCC2 [Example 41, 2'-chloro-5'-methoxy-6-methyl-N-(4,5,6,7-tetrahydrothiazol[5,4-c]pyridin-2-yl)-[4,4'-bipyridine]-3-carboxamide], the IC50 [1, 5] is reported as 1240 nM, the IC50 [1, 6] is reported as > 500 nM and the IC50 [2, 7] is reported as > 1000 nM.
In the case of COc1cnc(Cl)cc1-c1cc(C)ncc1C(=O)Nc1nc2c(s1)CN(C1CCC(O)CC1)CC2 (stereo not drawn) [Example 42, 2'-chloro-N-(5-(4-hydroxycyclohexyl)-4,5,6,7-tetrahydrothiazol[5,4-c]pyridin-2-yl)-5'-m ethoxy-6-methyl-[4,4'-bipyridine]-3-carboxamide], the IC50 [1, 5] is reported as 200 nM, the IC50 [1, 6] is reported as 200 to 500 nM and the IC50 [2, 7] is reported as > 1000 nM.
With COc1cnc(Cl)cc1-c1cc(C)ncc1C(=O)Nc1nc2ccc(N3CCOCC3)cc2s1 [Example 45, 2-chloro-5-methoxy-6-methyl-N-(6-morpholinylbenzothiazol-2-yl)-4, 4'-bipyridin-3-car boxamide] the IC50 [1, 8] was 25.4 nM, the IC50 [1, 9] was < 50 nM and the IC50 [2] was 141 nM. It also gave an IC50 [3, 4] of 100 to 500 nM.
With COc1cnc(Cl)c(F)c1-c1cc(C)ncc1C(=O)Nc1nc2c(s1)CN(C(=O)C1CCOC1)CC2 (stereo not drawn) [Example 54, 2'-chloro-3'-fluoro-5'-methoxy-6-methyl-N-(5-(tetrahydrofuran-3-carbonyl)-4,5,6,7-tetrahydrothiazol[5,4-c]pyridin-2-yl)-[4,4'-bipyridine]-3-carboxamide] the IC50 ([1]; Biochemical assay IC50 (nM)) was < 50 nM and 40.6 nM, the IC50 [2] was 794 nM and the IC50 [3, 4] was 500 to 1000 nM.
With COc1cnc(Cl)cc1-c1cc2cnc(C)n2cc1C(=O)Nc1nc2ccc(C3=CCC(O)CC3)nc2s1 (stereo not drawn) [Example 55, 7-(2-chloro-5-methoxypyridin-4-yl)-N-(5-(4-hydroxycyclohex-1-en-1-yl)thiazol[5,4-b]pyridin-2-yl)-3-methylimidazol[1,5-a]pyridin-6-carboxamide] the IC50 ([1]; Biochemical assay IC50 (nM)) was < 50 nM and 28.7 nM, the IC50 [2] was 112 nM and the IC50 [3, 4] was 100 to 500 nM.
For COc1cnc(Cl)cc1-c1cc(C)ncc1C(=O)Nc1nn2cc(-c3ccccn3)nc2s1 [Example 97, 2'-chloro-5'-methoxy-6-methyl-N-(6-(pyridin-2-vyl)imidazol[2,1-b][1,3,4]thiadiazol-2-yl)-[4,4'-bipyridine]-3-carboxamide], the IC50 ([1]; Biochemical assay IC50 (nM)) was < 50 nM and 26.4 nM, the IC50 [2] was 1210 nM and the IC50 [3, 4] was > 1000 nM.
For [2H]C([2H])([2H])c1cc(-c2cc(Cl)ncc2OC)c(C(=O)Nc2nc3ccc(N4CCC(O)CC4)nc3s2)cn1 [Example 109], the IC50 [1, 8] was 6.71 nM, the IC50 [1, 9] was < 50 nM and the IC50 [2] was 147 nM. The IC50 [3, 4] was < 100 nM.
COc1cnc(Cl)cc1-c1cc(C)ncc1C(=O)Nc1nc2cc(F)c(-c3c(C)nnn3C)nc2s1 [Example 227, 2'-chloro-N-(5-(1,4-dimethyl-1H-1,2,3-triazol-5-yl)-6-fluorothiazolo[5,4-b]pyridin-2-yl) -5'-methoxy-6-methyl-[4,4'-bipyridine]-3-carboxamide] gave an IC50 [1, 5] of 20.7 nM and an IC50 ([3]; read-out: Cell viability assay IC50 (nM), CTG assay, CellTiter Glo, read on Day 10, cell line not given) of 112 nM.
